IC50 and melting point data for nine compounds are collected here from patent publication US20040259888A1, “Novel 4-aminofuropyrimidines and the use thereof” (priority 2001, published 2004).

Usually IC50 stands for the concentration that inhibits the measured activity by half. What is called melting point is the temperature of the solid-liquid transition.

Structures are written as SMILES. Counter-ions that a name gives are not always drawn.

Series [1] concerns the target human recombinant adenosine kinase (Homo sapiens, UniProt P55263). The series is described as follows: Inhibition of human recombinant adenosine kinase. It is filed as biochemical. The note with it: 14C-adenosine substrate, 0.5 mM ATP, 37° C., 20 min; read-out: Adenosine kinase inhibition (in vitro): IC50. As to the method: 1. Inhibition of Human Recombinant Adenosine Kinase
The test is carried out on 96-well filter plates (DE81 from Millipore, DEAE cellulose, 0.65 μm). The test buffer contains 50 mM tris/HCl pH 8.0, 10 mM DTT and 1 mM MgCl2; immediately prior to the start of the test, ATP is added in a concentration of 0.5 mM. The substrate used is ^14C-adenosine, diluted 1:30 in cold adenosine; the final concentration of the cold adenosine is 4×10^−6 M; the amount of ^14C-adenosine is chosen such that, at a volume of 10 μl, an activity of 0.5 kBq (=30 000 decays per minute) is present per well of the filter plate. The substances to be tested are dissolved in DMSO in a concentration of 10^−2 M. Further dilutions are carried out using water.
When carrying out the test, initially 80 μl of buffer are initially charged into each well. The test substances, the substrate adenosine and finally human recombinant adenosine kinase (Mathews J. J. et al., Biochemistry (1998) 37, 15607-15620) in test buffer pH 7.4 are added successively, in each case in a volume of 10 μl. The adenosine kinase concentration is chosen such that at most 30% of the total amount of adenosine are converted. The plates are then incubated at 37° C. for 20 min. The reaction is then stopped by filtration with suction. The filters are washed in each case once with ice-cold wash buffer (15 mM Tris/HCl pH 8.5) and ethanol. The plate is dried at 37° C. (about 15 min). 50 μl of scintillation solution are then pipetted into each well, and the ^14C activity is determined in a MicroBeta counter.
The inhibition of the enzyme activity by the substances tested is determined after substration of the blank value (no added enzyme) in comparison to the uninhibited enzyme (100% value).

Chain of human recombinant adenosine kinase (P55263 1-345 isoform P55263-2): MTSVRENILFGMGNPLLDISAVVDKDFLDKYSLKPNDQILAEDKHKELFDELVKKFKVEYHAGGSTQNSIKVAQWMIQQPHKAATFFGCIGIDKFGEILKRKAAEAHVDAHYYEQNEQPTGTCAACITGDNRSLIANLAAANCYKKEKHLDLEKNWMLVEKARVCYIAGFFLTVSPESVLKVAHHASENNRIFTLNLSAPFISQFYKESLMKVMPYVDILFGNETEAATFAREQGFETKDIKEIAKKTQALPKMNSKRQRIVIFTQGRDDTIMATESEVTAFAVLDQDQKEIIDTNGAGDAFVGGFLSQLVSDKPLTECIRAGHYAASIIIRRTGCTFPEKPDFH

In turn, `CN1CCN(c2ncnc3oc(-c4ccc(N)cc4)c(-c4ccc(F)cc4)c23)CC1` [Example 4, 4-[5-(4-Fluorophenyl)-4-(4-methyl-1-piperazinyl)furo[2,3-d]pyrimidin-6-yl]aniline] registered a melting point of 214 to 215 °C. For the same compound, in series [1], the IC50 amounted to 50 nM.
Taken in the same sequence, the figures for `CN1CCN(c2ncnc3oc(-c4ccc(N)nc4)c(-c4ccccc4)c23)CC1` [Example 8, 5-[4-(4-Methyl-1-piperazinyl)-5-phenylfuro[2,3-d]pyrimidin-6-yl]-2-pyridineamine] were 229 to 231 °C and 80 nM.
For the compound `CN(C)CC(=O)Nc1ccc(-c2oc3ncnc(N4CCOCC4)c3c2-c2ccc(F)cc2)cc1` [Example 35], the melting point lay within 228 to 235 °C. For the same compound, in series [1], the half-inhibitory concentration (IC50) came out at 20 nM.
Taken in the same sequence, the figures for `CN1CCN(c2ncnc3oc(-c4ccc(NCCO)nc4)c(-c4ccccc4)c23)CC1` [Example 37] were 219 to 221 °C and 20 nM.
As to `OC1CCN(c2ccc(-c3oc4ncnc(N5CCC(O)CC5)c4c3-c3ccc(F)cc3)cn2)CC1` [Example 198, 1-{5-[5-(4-Fluorophenyl)-4-(4-hydroxy-1-piperidinyl)furo[2,3-d]pyrimidin-6-yl]-2-pyridinyl}-4-piperidinol], the 50% inhibitory concentration (IC50) in series [1] was found to be 20 nM.
For `O=C(Nc1ccc(-c2oc3ncnc(N4CCC(O)CC4)c3c2-c2ccc(F)cc2)cc1)[C@@H]1CCCN1` [Example 201, N-{4-[5-Fluorophenyl)-4-(4-hydroxy-1-piperidinyl)furo[2.3-d]pyrimidin-6-yl]-phenyl}-L-prolinamide Hydrochloride], the IC50 in series [1] turned out to be 20 nM.
Turning to `CC(=O)N1CCN(c2ccc(-c3oc4ncnc(N5CCC(O)CC5)c4c3-c3ccc(F)cc3)cn2)CC1` [Example 255], the 50% inhibitory concentration (IC50) in series [1] amounted to 5 nM.
Same read-out and setting: for `NC1CCN(c2ccc(-c3oc4ncnc(N5CCC(N)CC5)c4c3-c3ccc(F)cc3)cn2)CC1` [Example 270] the value was 30 nM.
For the compound `CCN1CCN(c2ccc(-c3oc4ncnc(N5CCN(CC)CC5)c4c3-c3ccc(F)cc3)cn2)CC1` [Example 326], the IC50 in series [1] was 15 nM.
